As usually defined, the IC50 is the concentration needed to halve the response being measured.

Experiment [1] deals with T1, ERG isolated Ets domain (ERGu, 289-378) (Homo sapiens, UniProt P11308).
T1 construct: made in house
T1 sequence (P11308 289-378 isoform P11308-1): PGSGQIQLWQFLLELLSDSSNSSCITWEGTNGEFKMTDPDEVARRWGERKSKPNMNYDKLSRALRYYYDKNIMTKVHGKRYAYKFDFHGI
Description: Fluorescence polarization DNA binding assay, uninhibited ERG. The note with it: FP DNA binding, NA = no activity up to 2000 μM, >number = estimate from fit with lower bound. An excerpt: (§1) The constructs of ERG which retain full auto-inhibition were previously delineated (17). Fluorescence polarization-based assays for DNA binding were then developed, which were used for screening. In addition to the auto-inhibited form of ERG, it was important to also have an assay using its Ets domain, i.e., the uninhibited form of the protein, to compare action of compounds. Compounds which are active against the auto-inhibited form of the protein but have little or no effect on the uninhibited form were sought, indicating their binding is mediated by the non-conserved auto-inhibitory modules rather than the highly conserved Ets domain. […] Fragment screening is an alternative approach that has gained a great deal of favor in the pharma industry recently that employs relatively small molecules (22). […] The auto-inhibited construct was screened first with a dose dependent screen of actives with ERGi using fluorescein- and Texas Red-DNA and then the positive hits were counter-screened with the ERG Ets domain, specifically a screen of actives with ERGu, the latter screen serving to remove compounds which bind to the conserved Ets domain or to DNA, which left 26 compounds which inhibit the auto-inhibited construct of ERG binding to DNA but not the uninhibited ERG (the Ets domain) binding to DNA. ERGi is the auto-inhibited construct of ERG (272-388) and ERGu is the uninhibited DNA binding domain construct of ERG (289-378). […] The IC50 of the validated hits was 0.6-7 mM. […] Importantly, chemical shift changes upon compound addition are observed in the ^15N-^1H HSQC NMR spectra of ERG for amino acids located in the auto-inhibitory modules of ERG, indicating they do interact with these regions of the protein. It is critical to also develop assays for other ETS family members to assess the specificity of action of the compounds identified in the screen, so auto-inhibited constructs were expressed and assays were developed for five other ETS family members and assays for additional members of the family were also developed.
(§2) Using a standard medicinal chemistry approach, further optimization of the fragment hits were pursued. The specificity of parent fragments and their optimized derivatives with 5 additional Ets proteins which are representatives of 5 additional sub-families, were evaluated, as shown in Table 2. […] NA in Table 2 represents no activity up to the 2000 μM maximum concentration. >number in Table 2 represents some activity at highest concentrations so data fit with a lower bound to obtain an estimate of IC50.

For the next experiment, the target named is Spi1 (PU.1) (Homo sapiens, UniProt P17947). Description: Fluorescence polarization DNA binding assay, auto-inhibited PU.1. The note with it: auto-inhibited construct; NA = no activity up to 2000 μM; >number = estimate from fit with lower bound.
Description: as §1, §2

The next experiment has as its target T2, ELF3 (Homo sapiens, UniProt P78545).
T2 sequence (P78545 1-371): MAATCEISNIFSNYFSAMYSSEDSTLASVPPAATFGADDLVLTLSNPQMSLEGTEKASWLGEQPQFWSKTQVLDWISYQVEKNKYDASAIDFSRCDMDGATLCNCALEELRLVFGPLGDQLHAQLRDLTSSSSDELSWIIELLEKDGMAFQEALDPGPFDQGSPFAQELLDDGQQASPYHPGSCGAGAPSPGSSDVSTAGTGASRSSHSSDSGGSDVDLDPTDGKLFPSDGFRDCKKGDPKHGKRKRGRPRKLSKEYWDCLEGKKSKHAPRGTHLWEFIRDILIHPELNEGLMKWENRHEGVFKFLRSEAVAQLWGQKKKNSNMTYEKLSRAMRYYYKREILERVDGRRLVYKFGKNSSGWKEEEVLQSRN
Briefly: Fluorescence polarization DNA binding assay, auto-inhibited ELF3. The note with it: auto-inhibited construct; NA = no activity up to 2000 μM; >number = estimate from fit with lower bound.
Description: as §1, §2

A further experiment deals with T3, Ets1 (Homo sapiens, UniProt P14921).
T3 sequence (P14921 1-441): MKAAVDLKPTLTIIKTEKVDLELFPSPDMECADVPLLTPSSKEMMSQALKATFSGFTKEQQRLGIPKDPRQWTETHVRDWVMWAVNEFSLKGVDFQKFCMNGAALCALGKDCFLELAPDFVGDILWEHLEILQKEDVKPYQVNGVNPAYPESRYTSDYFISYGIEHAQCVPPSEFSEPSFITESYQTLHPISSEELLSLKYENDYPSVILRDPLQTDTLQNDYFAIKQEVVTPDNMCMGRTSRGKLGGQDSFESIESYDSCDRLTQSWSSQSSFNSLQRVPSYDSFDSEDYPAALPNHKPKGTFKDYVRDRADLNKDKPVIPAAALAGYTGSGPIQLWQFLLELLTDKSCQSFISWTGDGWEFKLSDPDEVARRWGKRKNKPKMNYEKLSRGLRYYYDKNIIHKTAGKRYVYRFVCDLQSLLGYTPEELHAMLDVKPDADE
Description: Fluorescence polarization DNA binding assay, auto-inhibited Ets-1. To be noted: auto-inhibited construct; NA = no activity up to 2000 μM; >number = estimate from fit with lower bound.
Description: as §1, §2

A further experiment has as its target T4, ELK1 (Homo sapiens, UniProt P19419).
T4 sequence (P19419 1-428): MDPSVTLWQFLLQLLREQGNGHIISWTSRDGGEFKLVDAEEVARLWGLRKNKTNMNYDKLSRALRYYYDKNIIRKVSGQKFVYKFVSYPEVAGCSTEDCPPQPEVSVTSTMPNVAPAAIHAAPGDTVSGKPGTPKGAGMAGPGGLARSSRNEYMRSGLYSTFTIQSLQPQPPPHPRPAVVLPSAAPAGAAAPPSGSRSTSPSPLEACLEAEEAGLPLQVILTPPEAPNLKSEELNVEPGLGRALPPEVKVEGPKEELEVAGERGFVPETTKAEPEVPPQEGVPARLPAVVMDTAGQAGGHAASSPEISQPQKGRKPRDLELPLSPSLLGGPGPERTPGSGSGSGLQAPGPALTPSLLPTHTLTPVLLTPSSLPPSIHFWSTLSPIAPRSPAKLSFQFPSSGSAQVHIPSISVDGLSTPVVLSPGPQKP
Briefly: Fluorescence polarization DNA binding assay, auto-inhibited ELK1. To be noted: auto-inhibited construct; NA = no activity up to 2000 μM; >number = estimate from fit with lower bound.
Description: as §1, §2

The target in a further experiment is T5, ETV6 (TEL) (Homo sapiens, UniProt P41212).
T5 sequence (P41212 1-452): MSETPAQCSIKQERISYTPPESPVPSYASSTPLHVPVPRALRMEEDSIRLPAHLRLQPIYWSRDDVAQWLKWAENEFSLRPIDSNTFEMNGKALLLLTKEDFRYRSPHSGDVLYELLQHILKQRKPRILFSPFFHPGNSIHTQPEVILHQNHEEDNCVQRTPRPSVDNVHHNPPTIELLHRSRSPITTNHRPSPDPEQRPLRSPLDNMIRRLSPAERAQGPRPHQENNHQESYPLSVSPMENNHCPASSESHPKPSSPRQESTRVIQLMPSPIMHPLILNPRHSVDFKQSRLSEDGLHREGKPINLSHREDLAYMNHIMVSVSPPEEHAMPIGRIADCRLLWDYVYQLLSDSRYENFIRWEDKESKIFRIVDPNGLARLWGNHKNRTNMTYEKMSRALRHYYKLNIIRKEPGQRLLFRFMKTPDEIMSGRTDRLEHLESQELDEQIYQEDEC
Briefly: Fluorescence polarization DNA binding assay, auto-inhibited ETV6. The note with it: auto-inhibited construct; NA = no activity up to 2000 μM; >number = estimate from fit with lower bound.
Description: as §1, §2

Experiment [2] deals with T6, ERG auto-inhibited construct (ERGi, 272-388) (Homo sapiens, UniProt P11308).
T6 construct: made in house
T6 sequence (P11308 272-388 isoform P11308-1): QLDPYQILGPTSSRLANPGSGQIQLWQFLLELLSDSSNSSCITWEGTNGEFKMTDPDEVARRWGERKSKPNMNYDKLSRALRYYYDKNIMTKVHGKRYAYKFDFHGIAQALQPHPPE
Description: ERGi-DNA fluorescence polarization assay. The format is binding.
Description: as §1, §2
Background: Fluorescence polarisation rises when a labelled molecule tumbles more slowly, as on binding a larger partner.

The target of the next experiment is T7, ERG (Homo sapiens, UniProt P11308).
T7 sequence (P11308 1-462 isoform P11308-1): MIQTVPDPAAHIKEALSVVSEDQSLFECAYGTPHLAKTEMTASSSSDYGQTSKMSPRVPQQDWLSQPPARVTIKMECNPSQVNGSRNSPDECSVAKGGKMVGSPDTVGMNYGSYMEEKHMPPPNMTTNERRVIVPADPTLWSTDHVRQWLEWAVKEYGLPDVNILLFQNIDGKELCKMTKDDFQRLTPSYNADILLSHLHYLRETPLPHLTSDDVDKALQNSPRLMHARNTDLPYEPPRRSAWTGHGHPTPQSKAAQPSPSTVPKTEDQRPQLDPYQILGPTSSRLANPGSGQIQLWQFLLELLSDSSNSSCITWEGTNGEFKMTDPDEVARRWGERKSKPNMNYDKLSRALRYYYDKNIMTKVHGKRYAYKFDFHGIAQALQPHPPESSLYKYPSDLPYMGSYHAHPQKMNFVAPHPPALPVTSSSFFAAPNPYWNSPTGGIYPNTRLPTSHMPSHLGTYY
Briefly: Time-dependent ERG-DNA fluorescence polarization assay. To be noted: time-dependent inhibition of ERG-DNA binding, irreversible inhibitor. How it is done:
To assay such compounds time-dependent inhibition of ERG-DNA binding was recorded using a fluorescence polarization (FP) based assay and the rates were fitted to derive KI and kinact for the compounds which were ranked based on the kinact/KI values as has been described previously.
These compounds were assayed using the time-dependent ERG-DNA assay described above. Importantly, time-dependent inhibition was observed, a hallmark of irreversible inhibitors. […] ERG inhibitors show time-dependent inhibition characteristics of irreversible inhibitors based on the following formula: […]
Kobs values were determined from the initial slope for the first 15 minutes. NMR chemical shift perturbation data was consistent with 2 binding sites on ERG. FIG. 14A and FIG. 14B show selected changes in chemical shift for resonances in the ^15N-^1H HSQC NMR spectrum of ERGi upon addition of KK-36-25.

Experiment [3] deals with Ewing's sarcoma cell lines. Briefly: Growth of Ewing's sarcoma cell lines. The note with it: read-out: IC50 values for inhibition of the growth. It counts as cell-based. How it is done:
(§3) The compounds of formula (I), in particular those in Table 3, were tested for their effects on the growth of Ewing sarcoma cell lines as well as a rhabdomyosarcoma cell line as a control. The inhibitors are active against Ewing sarcoma cell lines with sub μM EC50 values but not active with the rhabdomyosarcoma cell line. The relative activity of the compounds in the biochemical assay was also observed in the cellular data, consistent with an on-target mechanism of action. […] The inhibitor decreases expression of the two genes activated by EWS-FL11 and activates the expression of the gene repressed by EWS-FLI1, consistent with an on-target mechanism of action. The inhibitors have also been evaluated across a panel of leukemia cell lines and see selective activity on cell lines with an ERG and/or FLI1 dependence.
Evaluation of ERG inhibitors on Ewing's sarcoma cell lines. FIGS. 16A-16D show the results of treatment of Ewing's sarcoma cell lines with the bivalent ERG inhibitors. […] Ewing's sarcoma has EWS-FLI1 and EWS-ERG fusions (FLI1 is highly homologous to ERG). ERG inhibitors show submicromolar EC50 values for Ewing's sarcoma cell lines. […] Importantly, for the unrelated rhabdomyosarcoma cell line included in this panel, there was minimal inhibition of growth.

A further experiment concerns leukemia cell lines. Description: Panel of leukemia cell lines. The format is cell-based. To be noted: Jurkat, RS4-11, Kasumi, K562, THP-1. How it is done:
as §3
ERG inhibitor effects on leukemia cell lines. FIG. 17A-17D and FIG. 18A-18C show the effects of the ERG inhibitor on several leukemia cell lines. […] ERG inhibitors show efficacy against T-ALL cell line (Jurkat) and selective activity against specific leukemia cell lines. […] As expected from previous literature indicating a strong dependence on ERG for T-ALL, the T-ALL cell line Jurkat is quite sensitive to the ERG inhibitors (sub μM IC50 values). […]

Where [4] appears, read: optimized fragment analogs, values in text, read-out: IC50.

Read-outs that look alike come from different tables or passages of the source.

Take `COc1ccc(-c2c(C(C)=O)oc3c(OC)cccc23)cc1` [KK-16-69]: the IC50 was greater than 2 mM in [1]; greater than 5.7 mM at Spi1 (PU.1); greater than 2 mM on ELF3; greater than 2 mM at Ets1; greater than 2 mM on ELK1; greater than 7.8 mM on ETV6 (TEL). Besides, the IC50 in [2] (setting [4]) was 0.099 mM.

Take `COc1cc(OCC(=O)Nc2cccc(O)c2)ccc1C` [KK-22-93]: the IC50 was greater than 3 mM in experiment [1]; greater than 2 mM at Spi1 (PU.1); greater than 2 mM at ELF3; greater than 3.6 mM on Ets1; greater than 4.75 mM on ELK1; greater than 2 mM on ETV6 (TEL). For the same compound, in experiment [2] (setting [4]), the IC50 was determined as 0.088 mM.

Consider `CCNc1cc(-c2nc3ccccc3o2)ccc1C` [KK-23-07], for which the IC50 in experiment [1] was greater than 2 mM; at Spi1 (PU.1), greater than 3.3 mM; at ELF3, 1.74 mM; on Ets1, greater than 2.6 mM; at ELK1, greater than 2.5 mM; at ETV6 (TEL) it was greater than 4.4 mM. Also, the IC50 in experiment [2] (FP DNA binding, maximum concentration 2000 μM, read-out: IC50 ERG Auto-inhibited construct) was 0.837 mM.

On ERG, `Cc1ccc(-c2nc3cc(Cl)c(NC(=O)CCOCCn4cc(COCCOCCOc5ccc(S(=O)(=O)C6CCN(C(=O)/C=C/c7cc8ccccc8o7)C6)cc5)nn4)cc3o2)cc1` (stereo not shown) [KK-36-25] showed a Ki of 0.0063 mM. Also, the IC50 in experiment [3] was no more than 0.001 mM. In the experiment with leukemia cell lines, the “selectivity across leukemia cell lines” value is given as “selective for Leukemia cell lines dependent on ERG”.

Consider `Cc1ccc(-c2nc3cc(Cl)c(NC(=O)CCOCCn4cc(COCCOCCOCCOc5ccc(S(=O)(=O)C6CCN(C(=O)/C=C/c7cc8ccccc8o7)C6)cc5)nn4)cc3o2)cc1` (stereo not shown) [KK-36-84], for which the IC50 in experiment [3] was no more than 0.001 mM.
